Experimental data published in ChEMBL document CHEMBL1201862, “PubChem BioAssay data set” (2004).
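In this assay, cells in 96-well plates receive the compound at five concentrations for 48 hours. Endpoints are linearly interpolated between the surrounding concentrations. GI50 is the concentration that inhibits growth by half.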 Calls of active or inactive are those of the source. Rule as the data show it: active = GI50 up to about 1.1 µM and inactive = higher.

Key:
Assay in all cases: inhibition of tumour cell growth, NCI panel, 48 h
OVCAR-4 = system: OVCAR-4
M19-MEL = system: M19-MEL
UACC-257 = system: UACC-257
SF-268 = system: SF-268
CAKI-1 = system: CAKI-1
Malme-3M = system: Malme-3M
COLO 205 = system: COLO 205
LXFL 529 = system: LXFL 529
ACHN = system: ACHN
LOX IMVI = system: LOX IMVI
SW-620 = system: SW-620
SK-OV-3 = system: SK-OV-3
UO-31 = system: UO-31
NCI-H226 = system: NCI-H226
A549 = system: A549
U-251 = system: U-251
RXF 393 = system: RXF 393
NCI-H460 = system: NCI-H460
SF-295 = system: SF-295
RPMI-8226 = system: RPMI-8226
RXF 631 = system: RXF 631
EKVX = system: EKVX
A498 = system: A498
786-0 = system: 786-0
K562 = system: K562
OVCAR-8 = system: OVCAR-8
SN12C = system: SN12C
HT-29 = system: HT-29
SK-MEL-28 = system: SK-MEL-28
CCRF-CEM = system: CCRF-CEM
TK-10 = system: TK-10
HL-60 = system: HL-60
SK-MEL-5 = system: SK-MEL-5
NCI-H23 = system: NCI-H23
XF498 = system: XF498
IGROV-1 = system: IGROV-1
SF-539 = system: SF-539
DLD-1 = system: DLD-1
OVCAR-3 = system: OVCAR-3
KM12 = system: KM12
NCI-H522 = system: NCI-H522
HCT-116 = system: HCT-116
SNB-78 = system: SNB-78
KM-20L2 = system: KM-20L2
DMS-273 = system: DMS-273
HOP-92 = system: HOP-92
HOP-18 = system: HOP-18
UACC-62 = system: UACC-62
M14 = system: M14
SNB-19 = system: SNB-19
HCC 2998 = system: HCC 2998
HOP-62 = system: HOP-62
OVCAR-5 = system: OVCAR-5
SNB-75 = system: SNB-75
MOLT-4 = system: MOLT-4
SK-MEL-2 = system: SK-MEL-2
SR = system: SR
HCT-15 = system: HCT-15

C/C(=N\NC(=S)N1CCC(C2CCN(C(=S)N/N=C(\C)c3ccccn3)CC2)CC1)c1ccccn1
GI50 (OVCAR-4): > 100 µM (inactive)
GI50 (M19-MEL): > 100 µM (inactive)
GI50 (UACC-257): > 100 µM (inactive)
GI50 (SF-268): > 100 µM (inactive)
GI50 (CAKI-1): 68.1 µM (inactive)
GI50 (Malme-3M): > 100 µM (inactive)
GI50 (COLO 205): > 100 µM (inactive)
GI50 (LXFL 529): 55.3 µM (inactive)
GI50 (ACHN): 53.7 µM (inactive)
GI50 (LOX IMVI): 68.9 µM (inactive)
GI50 (SW-620): > 100 µM (inactive)
GI50 (SK-OV-3): 38.4 µM (inactive)
GI50 (UO-31): > 100 µM (inactive)
GI50 (NCI-H226): 60.7 µM (inactive)
GI50 (A549): 55 µM (inactive)
GI50 (U-251): 34.1 µM (inactive)
GI50 (RXF 393): 71.8 µM (inactive)
GI50 (NCI-H460): > 100 µM (inactive)
GI50 (SF-295): 71.3 µM (inactive)
GI50 (RPMI-8226): > 100 µM (inactive)
GI50 (RXF 631): > 100 µM (inactive)
GI50 (EKVX): > 100 µM (inactive)
GI50 (A498): > 100 µM (inactive)
GI50 (786-0): 45.4 µM (inactive)
GI50 (K562): > 100 µM (inactive)
GI50 (OVCAR-8): 46.7 µM (inactive)
GI50 (SN12C): 86.3 µM (inactive)
GI50 (HT-29): > 100 µM (inactive)
GI50 (SK-MEL-28): > 100 µM (inactive)
GI50 (CCRF-CEM): > 100 µM (inactive)
GI50 (TK-10): 53.8 µM (inactive)
GI50 (HL-60): > 100 µM (inactive)
GI50 (SK-MEL-5): 62.4 µM (inactive)
GI50 (NCI-H23): 59.7 µM (inactive)
GI50 (XF498): 35 µM (inactive)
GI50 (IGROV-1): 68.7 µM (inactive)
GI50 (SF-539): 51.3 µM (inactive)
GI50 (DLD-1): > 100 µM (inactive)
GI50 (OVCAR-3): 60.3 µM (inactive)
GI50 (KM12): > 100 µM (inactive)
GI50 (NCI-H522): 63.5 µM (inactive)
GI50 (HCT-116): 29.2 µM (inactive)
GI50 (SNB-78): 44.3 µM (inactive)
GI50 (KM-20L2): > 100 µM (inactive)
GI50 (DMS-273): 64.1 µM (inactive)
GI50 (HOP-92): 37.8 µM (inactive)
GI50 (HOP-18): > 100 µM (inactive)
GI50 (UACC-62): > 100 µM (inactive)
GI50 (M14): > 100 µM (inactive)
GI50 (SNB-19): 74.1 µM (inactive)
GI50 (HCC 2998): > 100 µM (inactive)
GI50 (HOP-62): > 100 µM (inactive)
GI50 (OVCAR-5): > 100 µM (inactive)
GI50 (SNB-75): 28.2 µM (inactive)

Cc1ccc(/C=C/C(=O)c2ccc(Cl)c(Cl)c2)cc1
GI50 (OVCAR-4): > 100 µM (inactive)
GI50 (UACC-257): > 100 µM (inactive)
GI50 (SF-268): > 100 µM (inactive)
GI50 (CAKI-1): > 100 µM (inactive)
GI50 (Malme-3M): > 100 µM (inactive)
GI50 (COLO 205): > 100 µM (inactive)
GI50 (LXFL 529): > 100 µM (inactive)
GI50 (ACHN): > 100 µM (inactive)
GI50 (LOX IMVI): > 100 µM (inactive)
GI50 (SW-620): > 100 µM (inactive)
GI50 (MOLT-4): > 100 µM (inactive)
GI50 (SK-OV-3): > 10 µM (inactive)
GI50 (UO-31): > 100 µM (inactive)
GI50 (NCI-H226): > 100 µM (inactive)
GI50 (A549): > 100 µM (inactive)
GI50 (U-251): > 100 µM (inactive)
GI50 (RXF 393): 84.1 µM (inactive)
GI50 (NCI-H460): > 100 µM (inactive)
GI50 (SK-MEL-2): > 100 µM (inactive)
GI50 (SF-295): > 100 µM (inactive)
GI50 (SR): > 100 µM (inactive)
GI50 (RXF 631): > 100 µM (inactive)
GI50 (EKVX): > 100 µM (inactive)
GI50 (A498): > 100 µM (inactive)
GI50 (786-0): > 100 µM (inactive)
GI50 (K562): > 100 µM (inactive)
GI50 (OVCAR-8): > 100 µM (inactive)
GI50 (SN12C): > 100 µM (inactive)
GI50 (HT-29): > 100 µM (inactive)
GI50 (SK-MEL-28): > 100 µM (inactive)
GI50 (CCRF-CEM): > 100 µM (inactive)
GI50 (TK-10): > 100 µM (inactive)
GI50 (HL-60): > 100 µM (inactive)
GI50 (SK-MEL-5): > 100 µM (inactive)
GI50 (NCI-H23): > 100 µM (inactive)
GI50 (XF498): > 100 µM (inactive)
GI50 (IGROV-1): > 100 µM (inactive)
GI50 (DLD-1): > 100 µM (inactive)
GI50 (OVCAR-3): > 100 µM (inactive)
GI50 (KM12): > 100 µM (inactive)
GI50 (NCI-H522): > 100 µM (inactive)
GI50 (HCT-116): > 100 µM (inactive)
GI50 (SNB-78): > 100 µM (inactive)
GI50 (KM-20L2): > 100 µM (inactive)
GI50 (DMS-273): > 100 µM (inactive)
GI50 (HOP-18): 63.1 µM (inactive)
GI50 (UACC-62): > 100 µM (inactive)
GI50 (M14): > 100 µM (inactive)
GI50 (SNB-19): > 100 µM (inactive)
GI50 (HCC 2998): > 100 µM (inactive)
GI50 (HOP-62): > 100 µM (inactive)
GI50 (OVCAR-5): > 100 µM (inactive)
GI50 (SNB-75): > 100 µM (inactive)

CS(=O)(=O)OC1CCC2(C#N)CCC1C2=O (stereo not drawn)
GI50 (OVCAR-4): > 100 µM (inactive)
GI50 (M19-MEL): > 100 µM (inactive)
GI50 (UACC-257): > 100 µM (inactive)
GI50 (SF-268): > 100 µM (inactive)
GI50 (CAKI-1): > 100 µM (inactive)
GI50 (Malme-3M): > 100 µM (inactive)
GI50 (COLO 205): 70.8 µM (inactive)
GI50 (LXFL 529): > 100 µM (inactive)
GI50 (ACHN): > 100 µM (inactive)
GI50 (LOX IMVI): > 100 µM (inactive)
GI50 (MOLT-4): > 100 µM (inactive)
GI50 (SK-OV-3): > 100 µM (inactive)
GI50 (UO-31): > 100 µM (inactive)
GI50 (NCI-H226): > 100 µM (inactive)
GI50 (A549): > 100 µM (inactive)
GI50 (U-251): > 100 µM (inactive)
GI50 (RXF 393): > 100 µM (inactive)
GI50 (NCI-H460): 95.3 µM (inactive)
GI50 (SK-MEL-2): > 100 µM (inactive)
GI50 (SF-295): > 100 µM (inactive)
GI50 (SR): 19.8 µM (inactive)
GI50 (RPMI-8226): 21.9 µM (inactive)
GI50 (RXF 631): > 100 µM (inactive)
GI50 (HCT-15): 12.1 µM
GI50 (EKVX): > 100 µM (inactive)
GI50 (A498): > 100 µM (inactive)
GI50 (786-0): 79.6 µM (inactive)
GI50 (K562): > 100 µM (inactive)
GI50 (OVCAR-8): > 100 µM (inactive)
GI50 (SN12C): > 100 µM (inactive)
GI50 (HT-29): > 100 µM (inactive)
GI50 (SK-MEL-28): > 100 µM (inactive)
GI50 (CCRF-CEM): > 100 µM (inactive)
GI50 (TK-10): > 100 µM (inactive)
GI50 (HL-60): > 100 µM (inactive)
GI50 (SK-MEL-5): > 100 µM (inactive)
GI50 (NCI-H23): > 100 µM (inactive)
GI50 (XF498): > 100 µM (inactive)
GI50 (IGROV-1): > 100 µM (inactive)
GI50 (SF-539): > 100 µM (inactive)
GI50 (DLD-1): > 100 µM (inactive)
GI50 (OVCAR-3): > 100 µM (inactive)
GI50 (KM12): > 100 µM (inactive)
GI50 (NCI-H522): 86.5 µM (inactive)
GI50 (HCT-116): > 100 µM (inactive)
GI50 (SNB-78): > 100 µM (inactive)
GI50 (KM-20L2): 54.5 µM (inactive)
GI50 (DMS-273): 22.5 µM (inactive)
GI50 (HOP-18): > 100 µM (inactive)
GI50 (UACC-62): > 100 µM (inactive)
GI50 (M14): 71.3 µM (inactive)
GI50 (SNB-19): > 100 µM (inactive)
GI50 (HCC 2998): 46.1 µM (inactive)
GI50 (HOP-62): > 100 µM (inactive)
GI50 (OVCAR-5): > 100 µM (inactive)
GI50 (SNB-75): > 100 µM (inactive)
